Source: US8569511B2, “Substituted 3-(1H-benzo[d]imidazol-2-yl)-1H-indazole analogs as inhibitors of the PDK1 kinase” (University of Utah Research Foundation, priority 2011, dated 2013)

How the values were obtained:
PDK1 [1] = biological target: T1, PDK1 (Homo sapiens (Human), UniProt O15530); assay: PDK1 ATP Depletion Kinase Assay (Kinase-Glo luminescence); type: biochemical; settings: PDKtide substrate, read-out: PDK1 Kinase assays (IC50, μM) Activity Assay
Method: Test compounds were diluted to desired concentrations in kinase reaction buffer and briefly incubated with human recombinant PDK1 kinase which is histidine-tagged (Invitrogen Corporation, Carlsbad, Calif.). The reaction was subsequently initiated by the addition of ATP and PDKtide substrate (Millipore Corporation, Billerica, Massachussetts). […] After an incubation of 60 minutes at room temperature, 10 μl of the Kinase-Glo reagent (Promega Corporation, Madison, Wis.) was added to each well and incubated for an additional 10 minutes. Luminescence was measured on an EnVision microplate reader (PerkinElmer). The amount of luminescence from each reaction is inversely correlated with PDK1 kinase activity. Percent inhibition and IC50 values can be calculated by comparing enzyme activity in drug-treated wells to the appropriate controls, e.g. vehicle control.
(§1) IC50 values are determined using GraphPad Prism 5 software. The data were entered as an X-Y plot into the software as percent inhibition for each concentration of the drug. The concentration values of the drug were log transformed and the nonlinear regression was carried out using the “sigmoidal dose-response (variable slope)” option within the GraphPad software to model the data and calculate IC50 values.

PDK1 [2] = biological target: T1, PDK1; assay: Time resolved-FRET LanthaScreen Kinase Binding Assay; settings: TR-FRET Lanthascreen Kinase Binding Assay; read-out: PDK1 Kinase assays (IC50, μM) Binding Assay
Text: Binding of the tracer to the kinase is detected using a europium-labeled anti-tag antibody, which binds to the kinase of interest. […] Binding of an inhibitor to the kinase competes for binding with the tracer, resulting in a loss of FRET.
Activity of compounds was routinely assessed using a secondary assay as described herein. The secondary assay was a time resolved-FRET LanthaScreen Kinase Binding Assay (Invitrogen Corporation, Carlsbad, Calif.). This assay evaluates the ability of the test compound to compete with a fluorescently-labeled tracer molecule to bind in the ATP pocket of a kinase. The assay signal is generated when a Europium-conjugated anti-His tag antibody (Invitrogen) bound to the His-tagged kinase produces a TR-FRET signal with the tracer molecule bound in the ATP pocket of the kinase. […] After 60 minutes of incubation at room temperature, the TR-FRET signal was measured on an EnVision microplate reader.
as §1

PDK1 [3] = biological target: T1, PDK1; assay: PDK1 fluorometric activity assay performed by Life Technologies; type: biochemical; settings: fluorometric assay performed by Life Technologies (Table IV); read-out: PDK1 Kinase assays (IC50)
Method: PDK1 biochemical activity was measured by a fluorometric assay performed by Life Technologies (Grand Island, N.Y.). The assay conditions for PDK1 are as follows. The 2×PDK1/Ser/Thr-07 mixture is prepared in 50 mM Tris pH 8.5, 0.01% BRIJ-35, 10 mM MgCl2, 1 mM EGTA, 0.02% NaN3.
The kinase specificity was measured using fluorometric assays performed by Life Technologies (Grand Island, N.Y.). Assay conditions vary for each kinase and are available from Life Technologies, Grand Island, NY. For example, the assay conditions for PDK1 are as follows. The 2×PDK1/Ser/Thr-07 mixture is prepared in 50 mM Tris pH 8.5, 0.01% BRIJ-35, 10 mM MgCl2, 1 mM EGTA, 0.02% NaN3.

AN3-CA cells = assay: Cell viability assay (ATP-lite); type: cell-based; settings: Homo sapiens; AN3-CA (PTEN and PIK3R1 mutations); read-out: Cell Viability IC50 AN3-CA
Method: (§2) AN3-CA (PTEN-deficient), RL95-2 (PTEN-deficient), and HEC-1A (PTEN-wild type) cells were plated in 45 μl of RPMI-1640 media supplemented with 10% FBS and 1% Pen/Strep at a density of 1000 cells per well in white 384-well plates. Cells were allowed to attach by incubation overnight at 37° C. and 5% CO2. Test compounds were diluted to 10× concentrations in RPMI-1640 media (containing 3% DMSO) and 5 μl 1 of these dilutions were added in triplicate to the appropriate wells containing the cells. The plates containing the drug-treated cells and appropriate controls were incubated for 96 hours. At the end of the incubation, 40 μl of ATP-lite (PerkinElmer, Inc., Waltham, Massachussetts) reagent were added to each well and luminescence signal was measured on an EnVision microplate reader.
(§3) Alternatively, AN3-CA, RL95-2, HEC-1A endometrial cancer cell lines were plated at a density of 2000 cells per well in a 96 well culture plate in 45 μl of cell culture media and incubated overnight. The following day, test compounds were added to the cells in 5 μl of serum-free media to generate final concentrations of 10, 3, 1, 0.3, 0.1, 0.03, 0.01, or 0.003 μM. Vehicle treated controls were also included and each condition was applied in quadruplicate. Following 96 hours of incubation, 35 μL of ATP-lite (PerkinElmer) reagent was added each well and allowed to react for 10 minutes. Plate was read on a Envision 2104 MultiLabel reader (PerkinElmer).
as §1

HEC-1A cells = assay: Cell viability assay (ATP-lite); type: cell-based; settings: Homo sapiens; HEC-1A (PTEN-wild type); read-out: Cell Viability IC50 HEC-1A
Method: as §2
as §3, with “The following day, test compounds were added to the cells in 5 μl of serum-free media to generate final concentrations of 10, 3, 1, 0.3, 0.1, 0.03, 0.01, or 0.003 μM.” left out
as §1

RL95-2 cells = assay: Cell viability assay (ATP-lite); type: cell-based; settings: Homo sapiens; RL95-2 (PTEN mutation); read-out: Cell Viability IC50 RL95-2
Method: as §2
as §3, with “The following day, test compounds were added to the cells in 5 μl of serum-free media to generate final concentrations of 10, 3, 1, 0.3, 0.1, 0.03, 0.01, or 0.003 μM.” left out
as §1

T1 sequence (O15530 whole entry): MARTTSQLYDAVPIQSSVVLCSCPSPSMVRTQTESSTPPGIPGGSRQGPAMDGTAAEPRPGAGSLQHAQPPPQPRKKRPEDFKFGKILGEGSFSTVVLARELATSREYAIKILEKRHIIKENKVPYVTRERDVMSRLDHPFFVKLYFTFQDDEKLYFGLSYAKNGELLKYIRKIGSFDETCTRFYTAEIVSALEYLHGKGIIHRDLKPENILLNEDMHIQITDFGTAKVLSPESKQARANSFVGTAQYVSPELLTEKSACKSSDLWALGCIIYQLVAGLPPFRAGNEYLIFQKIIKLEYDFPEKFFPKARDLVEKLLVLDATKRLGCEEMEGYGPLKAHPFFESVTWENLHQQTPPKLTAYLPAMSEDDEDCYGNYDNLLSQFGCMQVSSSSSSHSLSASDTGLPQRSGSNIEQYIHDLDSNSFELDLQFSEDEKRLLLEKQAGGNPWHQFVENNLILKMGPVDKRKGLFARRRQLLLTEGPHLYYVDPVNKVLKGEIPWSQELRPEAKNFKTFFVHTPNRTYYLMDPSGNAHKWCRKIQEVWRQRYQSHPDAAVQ

Structure (SMILES) | IC50 (PDK1 [1]) [µM] | IC50 (PDK1 [2]) [µM] | IC50 (PDK1 [3]) [nM] | IC50 (AN3-CA cells) [µM] | IC50 (HEC-1A cells) [µM] | IC50 (RL95-2 cells) [µM]
O=C(Nc1ccc2[nH]nc(-c3nc4cc(CN5CCOCC5)ccc4[nH]3)c2c1)C1CC1(F)F (centres unmarked) [Compound 9] | 3.75 | 1.22 | 1220 | 0.443 | 18.4 | 3.22
O=C(Nc1cccc2[nH]nc(-c3nc4ccc(N5CCOCC5)cc4[nH]3)c12)C1CC1(F)F (centres unmarked) [Compound 10] | 4.4 | 0.385 | 385 |  |  | 
Brc1ccc2[nH]nc(-c3nc4ccccc4[nH]3)c2c1 [Compound 11] | 10.9 |  |  | 12.1 | 29.5 | 11.5
O=C(Nc1ccc2[nH]nc(-c3nc4ccccc4[nH]3)c2c1)NC1CC1 [Compound 12] | 11.6 | 0.92 | 920 | 18 | 12.7 | 17
O=C(Nc1ccc2[nH]nc(-c3nc4ccccc4[nH]3)c2c1)c1cccc(F)c1 [Compound 13] | 21.1 | 8.79 | 8800 | 23.8 | 50.7 | 15.3
CS(=O)(=O)c1cccc(-c2ccc3[nH]nc(-c4nc5ccccc5[nH]4)c3c2)c1 [Compound 14] | 23.7 | 15.3 | 15300 | 10.1 | 20.1 | 35.1
FC(F)(F)c1cccc(-c2ccc3[nH]nc(-c4nc5ccccc5[nH]4)c3c2)c1 [Compound 15] | 55.7 | 30.3 | 30300 |  |  | 
CC(C)(C#N)c1ccc(-c2ccc3[nH]nc(-c4nc5ccccc5[nH]4)c3c2)cc1 [Compound 16] | 58.5 | 5.17 | 5200 | 79.3 | 28.7 | 15.1
O=C(Nc1ccc2[nH]nc(-c3nc4ccccc4[nH]3)c2c1)Nc1ccc(F)cc1F [Compound 17] | > 100 | > 100 |  |  |  | 
CN1CCC(C)(C(=O)Nc2ccc3[nH]nc(-c4nc5ccccc5[nH]4)c3c2)CC1 [Compound 18] | > 100 |  |  | 15.4 | 56.3 | 6.24
O=C(Nc1ccc2[nH]nc(-c3nc4ccccc4[nH]3)c2c1)NC1CCCC1 [Compound 19] | > 100 |  |  |  |  | 
O=C(Nc1ccc2[nH]nc(-c3nc4ccccc4[nH]3)c2c1)C1CCN(c2ccncc2)CC1 [Compound 20] | > 100 | > 100 |  |  |  | 
O=C(Nc1ccc2c(-c3nc4ccc(N5CCOCC5)cc4[nH]3)n[nH]c2c1)C1CC1(F)F (centres unmarked) [Compound 21] | > 100 | > 100 |  |  |  | 

Now those with a lower IC50 (PDK1 [1]), led by results:

IC50 (PDK1 [1]) [µM] | IC50 (PDK1 [2]) [µM] | IC50 (PDK1 [3]) [nM] | Structure (SMILES) | IC50 (AN3-CA cells) [µM] | IC50 (HEC-1A cells) [µM] | IC50 (RL95-2 cells) [µM]
1.94 | 0.28 | 280 | O=C(Nc1ccc2[nH]nc(-c3nc4ccccc4[nH]3)c2c1)C1CC1(F)F (centres unmarked) [Compound 8] | 0.33 | 14.8 | 6.97
1.74 | 1.23 | 1230 | O=C(Nc1ccc2[nH]nc(-c3nc4ccccc4[nH]3)c2c1)C1CC1 [Compound 7] |  |  | 
1.5 | 0.41 | 410 | O=C(Nc1ccc2[nH]nc(-c3nc4ccccc4[nH]3)c2c1)C1CCC(F)(F)CC1 [Compound 6] | 2.07 | 9.65 | 2.3
0.78 |  | 780 | CC1CCN(c2ccc3[nH]c(-c4n[nH]c5ccc(NC(=O)C6CC6(F)F)cc45)nc3c2)CC1 (centres unmarked) [Compound 5] |  |  | 
0.304 | 0.265 | 265 | O=C(Nc1ccc2[nH]nc(-c3nc4cc(N5CCOCC5)ccc4[nH]3)c2c1)C1CCC(F)(F)CC1 [Compound 4] |  |  | 
0.283 | 0.229 | 230 | O=C(Nc1ccc2[nH]nc(-c3nc4cc(N5CCOCC5)ccc4[nH]3)c2c1)C1CC1 [Compound 3] |  |  | 
